Data set [1] relates to Chenopodium album. Nature of the data set: Herbicidal activity in post-emergence. To be noted: dosage of 15 g/ha, fifteen days after the treatment, damage vs non-treated plants. The data set is classed as in vivo. The method, then:
(§1) Determination of the Herbicidal Activity and Phytotoxicity in Post-Emergence The herbicidal activity of the compounds of the invention in post-emergence was evaluated according to the following operative procedures. The vegetable species of interest (weeds or crops) were sown in pots with an upper diameter of 10 cm, a height of 10 cm and containing sandy soil. 10 pots were used for each vegetable species. Water was added to each pot in such a quantity as to germinate the seeds. The pots were divided into two groups, each containing 5 pots for each weed or crop. Fifteen days after sowing (ten, in the case of wheat), when the weeds and crops, according to the species, were 10-15 cm high, the first set of pots was treated with a hydro-acetonic dispersion containing acetone at 10% in volume, the product under evaluation at the desired concentration and Tween 20 at 0.5%. The second set was treated with a hydro-acetonic solution only, containing acetone at 10% in volume and Tween 20 at 0.5%, and was used as comparison (blank). All pots were kept under observation in a conditioned environment under the following conditions: temperature: 24° C.; relative humidity: 60%; photo-period: 16 ore; light intensity: 10000 lux. The pots were uniformly watered every other day so as to ensure a humidity degree sufficient for a good development of the plants.

The subject of data set [2] is Sida spinosa. Kind of data set: Herbicidal activity in post-emergence. The data set is classed as in vivo. As to conditions: dosage of 15 g/ha, fifteen days after the treatment, damage vs non-treated plants. The method, then:
as §1

Data set [3] concerns Abutilon theofrasti. Nature of the data set: Herbicidal activity in post-emergence. As to conditions: dosage of 15 g/ha, fifteen days after the treatment, damage vs non-treated plants. The class given is in vivo. As to the method:
as §1

The test system of data set [4] is Ipomea purpurea. Nature of the data set: Herbicidal activity in post-emergence. The data set is classed as in vivo. To be noted: dosage of 15 g/ha, fifteen days after the treatment, damage vs non-treated plants. The method, then:
as §1

Data set [5] relates to Amaranthus retroflexus. Kind of data set: Herbicidal activity in post-emergence. The class given is in vivo. To be noted: dosage of 15 g/ha, fifteen days after the treatment, damage vs non-treated plants. The method, then: as §1
Data set [6] deals with Portulaca oleracea. Kind of data set: Herbicidal activity in post-emergence. The class given is in vivo. As to conditions: dosage of 15 g/ha, fifteen days after the treatment, damage vs non-treated plants. The method, then:
as §1

Data set [7] concerns Solanum nigrum. Kind of data set: Herbicidal activity in post-emergence. The data set is classed as in vivo. As to conditions: dosage of 15 g/ha, fifteen days after the treatment, damage vs non-treated plants. As to the method:
as §1

Data set [8] concerns Chenopodium album. Kind of data set: Herbicidal activity in pre-emergence. The class given is in vivo. To be noted: dosage of 15 g/ha, fifteen days after the treatment, damage vs non-treated plants. As to the method: (§2) Determination of the Herbicidal Activity and Phytotoxicity in Pre-Emergence The herbicidal activity of the compounds of the invention in pre-emergence was evaluated according to the following operative procedures. The vegetable species of interest (weeds or crops) were sown in pots with an upper diameter of 10 cm, a height of 10 cm and containing sandy soil. 10 pots were used for each vegetable species. Water was added to each pot in such a quantity as to germinate the seeds. The pots were divided into two groups, each containing 5 pots for each weed or crop. After one day from the sowing, the first set of pots was treated with a hydro-acetonic dispersion containing acetone at 10% in volume, the product under evaluation at the desired concentration and Tween 20 at 0.5%. The second set was treated with a hydro-acetonic solution only, containing acetone at 10% in volume and Tween 20 at 0.5%, and was used as comparison (blank). All pots were kept under observation in a conditioned environment under the following conditions: temperature: 24° C.; relative humidity: 60%; photoperiod: 16 ore; light intensity: 10000 lux. The pots were uniformly watered in order to ensure a sufficient humidity degree for a good development of the plants.

Data set [9] relates to Sida spinosa. Nature of the data set: Herbicidal activity in pre-emergence. The data set is classed as in vivo. To be noted: dosage of 15 g/ha, fifteen days after the treatment, damage vs non-treated plants. As to the method: as §2
Data set [10] concerns Abutilon theofrasti. Kind of data set: Herbicidal activity in pre-emergence. To be noted: dosage of 15 g/ha, fifteen days after the treatment, damage vs non-treated plants. The class given is in vivo. As to the method:
as §2

Data set [11] concerns Ipomea purpurea. Kind of data set: Herbicidal activity in pre-emergence. The class given is in vivo. To be noted: dosage of 15 g/ha, fifteen days after the treatment, damage vs non-treated plants. As to the method: as §2
In a further data set the test system is Galium aparine. Nature of the data set: Herbicidal activity in pre-emergence. The class given is in vivo. As to conditions: dosage of 15 g/ha, fifteen days after the treatment, damage vs non-treated plants. As to the method:
as §2

The test system of data set [12] is Amaranthus retroflexus. Kind of data set: Herbicidal activity in pre-emergence. The data set is classed as in vivo. To be noted: dosage of 15 g/ha, fifteen days after the treatment, damage vs non-treated plants. As to the method: as §2
Data set [13] relates to Portulaca oleracea. Nature of the data set: Herbicidal activity in pre-emergence. As to conditions: dosage of 15 g/ha, fifteen days after the treatment, damage vs non-treated plants. The class given is in vivo. The method, then:
as §2

In data set [14] the test system is Solanum nigrum. Nature of the data set: Herbicidal activity in pre-emergence. The data set is classed as in vivo. To be noted: dosage of 15 g/ha, fifteen days after the treatment, damage vs non-treated plants. The method, then:
as §2

Turning to `Cn1c(C(F)(F)F)cc(=O)n(-c2cc(OCc3nnc(C(C)(C)C)o3)c(Cl)cc2F)c1=O` [Compound No 6, 3-{5-[(5-tert-butyl-1,3,4-oxadiazol-2-yl)methoxy]-4-chloro-2-fluorophenyl}-1-methyl-6-(trifluoromethyl)-2,4(1H,3H)-pyrimidinedione], the “Herbicidal activity in post-emergence, CA” value with Chenopodium album [1] is recorded as 4 (4=71-90% damage). In addition, in the data set with Sida spinosa [2], the “Herbicidal activity in post-emergence, SS” value was 4 (4=71-90% damage). For the same compound, in the data set on Abutilon theofrasti [3], the “Herbicidal activity in post-emergence, AT” value is 5 (5=91% damage—death of the plant). In addition, the “Herbicidal activity in post-emergence, IP” value in the data set on Ipomea purpurea [4] is given as 5 (5=91% damage—death of the plant). Also, the “Herbicidal activity in post-emergence, AR” value in the data set on Amaranthus retroflexus [5] was 3 (3=51-70% damage). The “Herbicidal activity in post-emergence, PO” value in the data set on Portulaca oleracea [6] is given as 4 (4=71-90% damage). Also, the “Herbicidal activity in post-emergence, SN” value in the data set on Solanum nigrum [7] is given as 5 (5=91% damage—death of the plant). Further, in the data set on Chenopodium album [8], the “Herbicidal activity in pre-emergence, CA” value is recorded as 5 (5=91% damage—death of the plant). Further, in the data set with Sida spinosa [9], the “Herbicidal activity in pre-emergence, SS” value is 5 (5=91% damage—death of the plant). Also, the “Herbicidal activity in pre-emergence, AT” value in the data set with Abutilon theofrasti [10] is on record as 5 (5=91% damage—death of the plant). Moreover, the “Herbicidal activity in pre-emergence, IP” value with Ipomea purpurea [11] is 4 (4=71-90% damage). Moreover, the “Herbicidal activity in pre-emergence, GA” value in the data set with Galium aparine is listed as 5 (5=91% damage—death of the plant). Moreover, in the data set on Amaranthus retroflexus [12], the “Herbicidal activity in pre-emergence, AR” value is 4 (4=71-90% damage). For the same compound, the “Herbicidal activity in pre-emergence, PO” value in the data set with Portulaca oleracea [13] is 5 (5=91% damage—death of the plant). In addition, the “Herbicidal activity in pre-emergence, SN” value with Solanum nigrum [14] is 5 (5=91% damage—death of the plant).

In general, melting point refers to the temperature, or range, at which the solid turns liquid. In the case of `Cn1nnc(-c2cc(-n3c(=O)cc(C(F)(F)F)n(C)c3=O)ccc2Cl)n1` [Compound No 13, 3-[4-chloro-3-(2-methyl-2H-tetrazol-5-yl)phenyl]-1-methyl-6-(trifluoromethyl)-2,4(1H,3H)-pyrimidinedione], the melting point was found to be 192 °C. In the data set with Chenopodium album [1], the “Herbicidal activity in post-emergence, CA” value is on record as 5 (5=91% damage—death of the plant). The “Herbicidal activity in post-emergence, SS” value in the data set on Sida spinosa [2] is on record as 5 (5=91% damage—death of the plant). Besides, the “Herbicidal activity in post-emergence, AT” value in the data set on Abutilon theofrasti [3] is 5 (5=91% damage—death of the plant). Further, in the data set with Ipomea purpurea [4], the “Herbicidal activity in post-emergence, IP” value is given as 5 (5=91% damage—death of the plant). The “Herbicidal activity in post-emergence, AR” value in the data set on Amaranthus retroflexus [5] is 5 (5=91% damage—death of the plant). In the data set on Portulaca oleracea [6], the “Herbicidal activity in post-emergence, PO” value was 5 (5=91% damage—death of the plant). In addition, the “Herbicidal activity in post-emergence, SN” value with Solanum nigrum [7] is listed as 5 (5=91% damage—death of the plant). The “Herbicidal activity in pre-emergence, CA” value with Chenopodium album [8] is listed as 5 (5=91% damage—death of the plant). Also, the “Herbicidal activity in pre-emergence, SS” value in the data set with Sida spinosa [9] was 5 (5=91% damage—death of the plant). Moreover, the “Herbicidal activity in pre-emergence, AT” value with Abutilon theofrasti [10] was 5 (5=91% damage—death of the plant). In the data set with Ipomea purpurea [11], the “Herbicidal activity in pre-emergence, IP” value is recorded as 5 (5=91% damage—death of the plant). In addition, in the data set with Galium aparine, the “Herbicidal activity in pre-emergence, GA” value was 5 (5=91% damage—death of the plant). Moreover, in the data set with Amaranthus retroflexus [12], the “Herbicidal activity in pre-emergence, AR” value was 5 (5=91% damage—death of the plant). The “Herbicidal activity in pre-emergence, PO” value with Portulaca oleracea [13] was 5 (5=91% damage—death of the plant). For the same compound, the “Herbicidal activity in pre-emergence, SN” value in the data set on Solanum nigrum [14] is listed as 5 (5=91% damage—death of the plant).

These data come from patent US7754880B2, “Uracils having a herbicidal activity” (Isagro Ricerca S.r.l., priority 2002, dated 2010).
